Laboratory results published in patent US20210228713A1, “TLR7 PEPTIDE CONJUGATES” (Apros Therapeutics, Inc., priority 2018, published 2021).
Where two headings read alike, the source gives them in different places. Residues, ends and D or L forms follow the SMILES beside them. *: point of attachment. X1 = CCCC[C@@H](CCS(C)(=O)=O)Nc1nc(N)nc(C)c1Cc1cc(CC(=O)*)ccc1OC

Target: T1, human TLR7 (hTLR7) (Homo sapiens, UniProt Q9NYK1)
T1 construct: host or cells: HEK293 (HEK-Blue hTLR7)
T1 sequence (Q9NYK1 27-1049): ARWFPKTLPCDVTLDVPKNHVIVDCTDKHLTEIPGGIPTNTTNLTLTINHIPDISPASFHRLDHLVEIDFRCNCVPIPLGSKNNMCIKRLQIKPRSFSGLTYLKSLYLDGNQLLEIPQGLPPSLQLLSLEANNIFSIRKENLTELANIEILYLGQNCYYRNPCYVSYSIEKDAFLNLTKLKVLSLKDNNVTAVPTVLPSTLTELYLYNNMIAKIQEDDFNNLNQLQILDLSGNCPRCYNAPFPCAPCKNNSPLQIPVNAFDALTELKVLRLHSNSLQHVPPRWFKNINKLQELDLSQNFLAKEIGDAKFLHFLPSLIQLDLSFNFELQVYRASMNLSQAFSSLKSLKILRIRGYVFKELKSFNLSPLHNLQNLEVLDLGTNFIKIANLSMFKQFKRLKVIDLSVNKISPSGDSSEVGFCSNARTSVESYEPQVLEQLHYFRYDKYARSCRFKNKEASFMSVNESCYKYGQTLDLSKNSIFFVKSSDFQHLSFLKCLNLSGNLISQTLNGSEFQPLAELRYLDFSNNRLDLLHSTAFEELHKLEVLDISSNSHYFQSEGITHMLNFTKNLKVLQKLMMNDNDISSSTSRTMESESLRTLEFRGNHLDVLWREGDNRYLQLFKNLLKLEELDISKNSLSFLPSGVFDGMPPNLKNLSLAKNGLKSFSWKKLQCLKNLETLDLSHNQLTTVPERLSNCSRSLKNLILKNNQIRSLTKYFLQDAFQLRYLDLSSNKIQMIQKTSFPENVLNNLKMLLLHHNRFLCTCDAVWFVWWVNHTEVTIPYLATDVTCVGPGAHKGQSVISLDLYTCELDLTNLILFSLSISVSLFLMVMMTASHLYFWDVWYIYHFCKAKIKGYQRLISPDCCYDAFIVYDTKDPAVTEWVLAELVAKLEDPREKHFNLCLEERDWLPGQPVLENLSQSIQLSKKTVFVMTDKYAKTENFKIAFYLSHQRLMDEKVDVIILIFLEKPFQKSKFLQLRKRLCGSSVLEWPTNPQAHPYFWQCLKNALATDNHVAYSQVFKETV
Test: HEK-Blue hTLR7 cell assay (NF-kB/AP-1 driven SEAP reporter)
Format: cell-based
From the text: HEK-Blue™ TLR7 cells were purchased from Invivogen (San Diego, Calif.). The following description was taken from the product information sheet.
“HEK-Blue™ hTLR7 cells are designed for studying the stimulation of human TLR7 (hTLR7) by monitoring the activation of NF-kB. HEK-Blue™ hTLR7 cells were obtained by co-transfection of the hTLR7 gene and an optimized secreted embryonic alkaline phosphatase (SEAP) reporter gene into HEK293 cells. The SEAP reporter gene is placed under the control of the IFN-b minimal promoter fused to five NF-kB and AP-1-binding sites. Stimulation with a TLR7 ligand activates NF-kB and AP-1 which induce the production of SEAP, which is detected by the HEK-Blue™ Detection cell culture medium.”
A typical assay protocol involved the following steps:
1. Cells were cultured according to the product information sheet.
2. 10 mM compound stock in DMSO were first diluted to 3 mM and then 3-fold serially diluted using DMSO to afford a 10-pt dilution.
3. 3 μl of the diluted DMSO were added to 57 μl HEK-Blue™ Detection media for a further 20-fold dilution.
4. 10 μl of the diluted compound in assay media were added into 40 μl cell culture (in HEK-Blue™ Detection media) in 384-well plate. Final cell concentration=8,000 cells per well.
5. The plates were incubated at 37° C. in 5% CO2 for 16 h. SEAP was determined using a spectrophotometer at 620-655 nm.

SMILES	EC50 [nM]	EC50 (HEK-Blue hTLR7 cells, 16 h incubation, SEAP read at 620-655 nm, read-out: HEK-TLR7 EC50) [nM]
CCCC[C@@H](CCS(C)(=O)=O)Nc1nc(N)nc(C)c1Cc1cc(CC(=O)N[C@@H](CC(C)C)C(=O)N[C@@H](CC(C)C)C(=O)N[C@H](C(=O)N[C@@H](CCCNC(=N)N)C(=O)N[C@H](C(=O)N[C@@H](CC(C)C)C(=O)N[C@H](C(=O)N[C@H](C(=O)N2CCC[C@H]2C(=O)N[C@@H](CCC(N)=O)C(=O)N[C@@H](CO)C(=O)N[C@@H](CC(C)C)C(=O)N[C@@H](CC(=O)O)C(=O)N[C@@H](CO)C(=O)N[C@@H](Cc2c[nH]c3ccccc23)C(=O)N[C@@H](Cc2c[nH]c3ccccc23)C(=O)N[C@H](C(=O)N[C@@H](CO)C(=O)N[C@@H](CC(C)C)C(=O)N[C@@H](CC(N)=O)C(=O)N[C@@H](Cc2ccccc2)C(=O)N[C@@H](CC(C)C)C(=O)NCC(=O)NCC(=O)N[C@@H](CO)C(=O)O)[C@@H](C)O)[C@@H](C)CC)[C@@H](C)O)[C@@H](C)CC)[C@@H](C)O)ccc1OC [*AP9] (X1-LLTRILTIPQSLDSWWTSLNFLGGS-OH)	320	
CCCC[C@@H](CCS(C)(=O)=O)Nc1nc(N)nc(C)c1Cc1cc(CC(=O)NCCCC[C@H](NC(C)=O)C(=O)O)ccc1OC [Compound 1-lysine conjugate]		100
